Several values for one entry are separate records, joined by “and”; a condition that tells them apart may be missing. Equal entries are not always repeated.
Legend:
[1] = cited from earlier work
[2] = system: E6/E7^LOW human hepatocytes; assay: Steatosis and phospholipidosis, HCS LipidTOX detection kit, hepatocyte cultures; type: cell-based
Description: Quantification of Apoptotic index was performed using DeadEnd™ fluorometric TUNEL System (Promega) according to manufacturer directions. Briefly, cells were treated with TC20 concentrations of compounds dissolved in culture medium for 24 hours, and subsequently fixed in 4% Paraformaldehyde (PFA). Cells were then permeabilized and exposed to fluorescein-12-dUTP and terminal deoxynucleotidyl transferase (TdT). The reaction was subsequently stopped and the cells counterstained with 1 μg/mL Hoechst 33258. Apoptotic cells were positive for green fluorescence in the nucleus. Percentage apoptosis was defined as the number of TUNEL positive nuclei normalized to Hoechst 33258 positive nuclei. Quantification of Steatosis was performed using HCS LipidTOX™ Phospholipidosis and Steatosis Detection Kit (ThermoFisher). Briefly, differentiated cells were incubated with different concentrations of compounds dissolved in culture medium and 1× Phospholipidosis Detection Reagent for 48 hours, subsequently fixed in 4% PFA. Cells were then stained with 1× LipidTOX™ for 20 minutes and counterstained with 1 μg/mL Hoechst 33258. Staining intensity was normalized to number of Hoechst 33258 positive nuclei. Quantification of Bile Secretion was performed using 5(6)-carboxy-2′,7′-dichlorofluorescein diacetate (CDFDA) staining. Briefly, differentiated cells were incubated with different concentrations of compounds dissolved in culture medium for 24 hours. Cells were then treated with 10 μg/mL CDFDA and 1 μg/mL Hoechst 33342 for 30 minutes. Incubation medium was removed and cultures washed with ice-cold PBS containing calcium and magnesium. Staining intensity was normalized to number of Hoechst 33342 positive nuclei. Analysis excluded Intracellular CDFDA staining based on intensity and phase images. All quantifications were made in comparison to cells treated with melatonin as negative control.
Quantification of Apoptotic index was performed using DeadEnd™ fluorometric TUNEL System (Promega) according to manufacturer directions. Briefly, cells were treated with TC20 concentrations of compounds dissolved in culture medium for 24 hours, and subsequently fixed in 4% Paraformaldehyde (PFA). Cell were then permeabilized and exposed to fluorescein-12-dUTP and terminal deoxynucleotidyl transferase (TdT). The reaction was subsequently stopped and the cells counterstained with 1 μg/mL Hoechst 33258. Apoptotic cells were positive for green fluorescence in the nucleus. […] Quantification of Steatosis was performed using HCS LipidTOX™ Phospholipidosis and Steatosis Detection Kit (ThermoFisher). […] Quantification of Bile Secretion was performed using 5(6)-carboxy-2′,7′-dichlorofluorescein diacetate (CDFDA) staining. […] All quantifications were made in comparison to cells treated with melatonin as negative control.

[3] = system: HepG2/C3A organoids; assay: Real-time oxygen uptake toxicity (TC50, time to onset, lowest exposure level) in differentiated HepG2/C3A organoids; type: cell-based, human; conditions: for TC50: oxygen uptake; for lowest exposure level (LEL): horizontal asymptote, onset of damage at infinite time
Description: A suspension of HepG2/C3A cells and CPOx-50-RuP beads (Colibri Photonics, Germany) were suspended in 2.5 mg/ml rat tail collagen type I (Corning, USA) at a cell density of 7×10^5 cells/μl. A volume of 1.1 μl of the gel-imbedded mixture was injected into each microwell and left to form spontaneously until their metabolic activity stabilized around day 4.
Fifty-micrometer-diameter polystyrene microbeads were loaded with ruthenium-phenanthroline-based phosphorescence dye (CPOx-50-RuP). […] Oxygen acts as a quencher, leading to a decrease in decay time and signal intensity with increasing concentration. The present inventors chose to measure decay time, rather than signal intensity, as it is not sensitive to changes in probe concentration or excitation intensity over the course of the experiment. The signal was measured using the OPAL system (Colibri Photonics, Germany) that comprises of a control module, 532 nm LED excitation source, and a photomultiplier (PMT) detector mounted on the ocular of an IX81 Olympus microscope (Olympus, Japan). A filter cube with 531/40 (Ex), 555, 607/70 (Em) was inserted in the optical light path during measurements. To accurately measure decay time, the present inventors chose phase modulation in which sinusoidal amplitude-modulated light is shifted in phase due to oxygen quenching. To overcome the superposition of in-phase background fluorescence that alters the phase of the detected signal, the present inventors used a novel 53.5 and 31.3 kHz two-frequency phase modulation that allowed to screen out the interference [Schmalzlin E., et al., 2005. Biophysical journal, 89: 1339-1345; Papkovsky, D. B. et al., 2004. Methods in enzymology, 381, 715-735; Ast, C., et al., 2012. Sensors (Basel), 12: 7015-7032; Engelhard, S., et al., 2006. Analytical and bioanalytical chemistry, 384: 1107-1112; Prill, D. et al., 2016, Archives of toxicology, 90: 1181-1191]. Measurements were carried out by averaging five consecutive 4-s exposures. Measurements were taken every 15 minutes. Under similar conditions, 28 days of measurement of organoids was done with no apparent phototoxicity, signal drift, or relevant loss of signal intensity (Schmalzlin E., et al., 2005. Biophysical journal, 89: 1339-1345). Assessment of Cellular Toxicity and Time to Onset
Organoids were exposed to different concentrations of compounds dissolved in culture medium. Cell viability was determined by oxygen uptake following 24 hours of exposure unless otherwise noted. TC50 concentrations were determined using MATLAB by sigmoidal curve fitting (Wenner, M. M. et al., 2011, J Appl Physiol (1985), 111: 1703-1709; Prentice, R. L. et al., 1976, Biometrics, 32: 761-768). Time to onset was analyzed by MATLAB based on LPF and trend assessment.
To find the asymptotic concentration for which damage occurs only at infinite exposure time, the present inventors used a previously developed model for accumulative drug exposure (El-Kareh et al., 2000. Neoplasia, 2: 325-338; Currie, G. M. 2018. J Nucl Med Technol, DOI: 10.2967/jnmt.117.199588). The model is based on the steady-state dynamics of flux accumulation, using a linear first-order approximation of the cell membrane. The flux behavior is described by
where J(C) is the concentration dependent flux, Jmin is the minimal flux that will cause an effect, t is time of exposure and |τ is a drug-cell specific constant accounting reaction dynamics (Gowrishankar et al., 2003. Proceedings of the National Academy of Sciences of the United States of America, 100: 3203-3208; Kotnik T. et al., 2000. IEEE Trans Biomed Eng, 47: 1074-1081). In the present case, t is the Time to Onset (TTO) of damage creating a bi-asymptotic behavior. This adapted model is used to describe lowest exposure level (LEL) under first order, steady state assumptions, as
Real-time oxygen measurements were performed optically using on-chip lifetime-based luminescence quenching (LBLQ). […]

[4] = system: E6/E7^LOW hepatocytes; conditions: flux balance analysis, below threshold of cellular damage; Valproate sustained, Stavudine transient
Description: According to some embodiments of the invention there is a sensor-integrated liver on chip array in which oxygen is monitored using two-frequency phase modulation of tissue-embedded phosphorescent microprobes, while glucose, lactate and temperature are measured in real time using microfluidic electrochemical sensors. Such a microphysiological platform permits the calculation of dynamic changes in metabolic fluxes around central carbon metabolism, producing a unique metabolic fingerprint of the liver's response to stimuli.

[5] = system: HepG2/C3A organoids; assay: Neutral lipid and phospholipid staining of HepG2/C3A organoids on chip; type: cell-based, human; conditions: p<0.001, n=9

For `CCCC(CCC)C(=O)O` [Valproate, 2-n-propylpentanoic acid], the “patients with evidence of steatosis” value ([1]; abdominal ultrasound) is listed as 61%, the “patients with elevated liver enzymes” value ([1]; patients on therapy) is listed as “Over 40%” and the phospholipidosis [2] is listed as “Evidence of phospholipidosis was seen”. The neutral lipids ([2]; p<0.001, n=4) was “strong and significant increase”, the TC50 ([3]; at 24 hours) was 27 mM and the TC50 ([3]; at 42 hours) was 14 mM and 14 ± 2 mM. For the same molecule, the “Time to onset (TTO) of response” value ([3]; dose-dependent range over concentrations tested) was 6 to 36 h, the “lowest exposure level (LEL)” value ([3]; ± standard error) was 280 ± 97 µM and the “lowest exposure level (LEL)” value ([3]; ± standard error of curve fit) was 280 ± 97 µM. For the same molecule, the “TC50 plateau value as a function of time” value ([3]; plateau of TC50 over time) was “around 5 mM”, the direct mitochondrial damage ([3]; sub-toxic levels) was “no indication of direct mitochondrial damage” and the increase in lipogenesis [4] was 15%. For the same molecule, the “increase in the amount of intracellular lipids” value [5] was 4 fold.
